Literature values, collected in PubChem BioAssay AID1259409 (Chemical Carcinogenesis Research Information System (CCRIS), 2018).

System: rodent chemically induced tumor inhibition, incidence and multiplicity
Test: CCRIS tumor inhibitor studies

| SMILES | tumour outcome (control, treated, inhibition, significance) (Carcinogen: BENZO[A]PYRENE, 50-32-8, Dose [Inhibitor]: 1000 PPM IN DIET CONTAINING 5% CORN OIL BEGINNING 1 WK PRIOR TO 1ST CARCINOGEN TREATMENT AND CONTINUING FOR 18 WK (STUDY, Route [Inhibitor]: ORAL, Species: MOUSE, Strain/Sex: STRAIN-A/FEMALE, Target Tissue: Type of Lesion: FORESTOMACH: SQUAMOUS CELL PAPILLOMA, Dose [Carcinogen]: 3 MG IN 0.25 ML CORN OIL AT 10 AND 12 WK OF AGE, Promoter: NONE USED) | tumour outcome (control, treated, inhibition, significance) (Carcinogen: BENZO[A]PYRENE, 50-32-8, Dose [Inhibitor]: 1000 PPM IN DIET CONTAINING 5% CORN OIL BEGINNING 1 WK PRIOR TO 1ST CARCINOGEN TREATMENT AND CONTINUING FOR 18 WK (STUDY, Route [Inhibitor]: ORAL, Species: MOUSE, Strain/Sex: STRAIN-A/FEMALE, Target Tissue: Type of Lesion: LUNG: ADENOMA, Dose [Carcinogen]: 3 MG IN 0.25 ML CORN OIL AT 10 AND 12 WK OF AGE, Promoter: NONE USED) | tumour outcome (control, treated, inhibition, significance) (Carcinogen: BENZO[A]PYRENE, 50-32-8, Dose [Inhibitor]: 1500 PPM IN DIET CONTAINING 5% CORN OIL BEGINNING 1 DAY POST LAST CARCINOGEN DOSE AND CONTINUING FOR 12 WK (STUDY DURATI, Route [Inhibitor]: ORAL, Species: MOUSE, Strain/Sex: STRAIN-A/FEMALE, Target Tissue: Type of Lesion: LUNG: ADENOMA, Dose [Carcinogen]: 3 MG IN 0.25 ML CORN OIL AT 6 AND 8 WK OF AGE, Promoter: NONE USED) | tumour outcome (control, treated, inhibition, significance) (Carcinogen: BENZO[A]PYRENE, 50-32-8, Dose [Inhibitor]: 1500 PPM IN DIET CONTAINING 5% CORN OIL BEGINNING 1 WK POST LAST CARCINOGEN DOSE AND CONTINUING FOR 12 WK (STUDY DURATIO, Route [Inhibitor]: ORAL, Species: MOUSE, Strain/Sex: STRAIN-A/FEMALE, Target Tissue: Type of Lesion: FORESTOMACH: SQUAMOUS CELL PAPILLOMA, Dose [Carcinogen]: 3 MG IN 0.25 ML CORN OIL AT 6 AND 8 WK OF AGE, Promoter: NONE USED) | tumour outcome (control, treated, inhibition, significance) (Carcinogen: BENZO[A]PYRENE, 50-32-8, Dose [Inhibitor]: 1500 PPM IN DIET CONTAINING 5% CORN OIL BEGINNING 4 D POST LAST CARCINOGEN DOSE AND CONTINUING FOR 12 WK (STUDY DURATION, Route [Inhibitor]: ORAL, Species: MOUSE, Strain/Sex: STRAIN-A/FEMALE, Target Tissue: Type of Lesion: FORESTOMACH: SQUAMOUS CELL PAPILLOMA, Dose [Carcinogen]: 3 MG IN 0.25 ML CORN OIL AT 6 AND 8 WK OF AGE, Promoter: NONE USED) | tumour outcome (control, treated, inhibition, significance) (Carcinogen: BENZO[A]PYRENE, 50-32-8, Dose [Inhibitor]: 1500 PPM IN DIET CONTAINING 5% CORN OIL BEGINNING 4 D POST LAST CARCINOGEN DOSE AND CONTINUING FOR 12 WK (STUDY DURATION, Route [Inhibitor]: ORAL, Species: MOUSE, Strain/Sex: STRAIN-A/FEMALE, Target Tissue: Type of Lesion: LUNG: ADENOMA, Dose [Carcinogen]: 3 MG IN 0.25 ML CORN OIL AT 6 AND 8 WK OF AGE, Promoter: NONE USED) | tumour outcome (control, treated, inhibition, significance) (Carcinogen: BENZO[A]PYRENE, 50-32-8, Dose [Inhibitor]: 1500 PPM IN DIET CONTAINING 5% CORN OIL BEGINNING 7 D POST LAST CARCINOGEN DOSE AND CONTINUING FOR 12 WK (STUDY DURATION, Route [Inhibitor]: ORAL, Species: MOUSE, Strain/Sex: STRAIN-A/FEMALE, Target Tissue: Type of Lesion: FORESTOMACH: SQUAMOUS CELL PAPILLOMA, Dose [Carcinogen]: 3 MG IN 0.25 ML CORN OIL AT 6 AND 8 WK OF AGE, Promoter: NONE USED) | tumour outcome (control, treated, inhibition, significance) (Carcinogen: BENZO[A]PYRENE, 50-32-8, Dose [Inhibitor]: 1500 PPM IN DIET CONTAINING 5% CORN OIL BEGINNING 7 D POST LAST CARCINOGEN DOSE AND CONTINUING FOR 12 WK (STUDY DURATION, Route [Inhibitor]: ORAL, Species: MOUSE, Strain/Sex: STRAIN-A/FEMALE, Target Tissue: Type of Lesion: LUNG: ADENOMA, Dose [Carcinogen]: 3 MG IN 0.25 ML CORN OIL AT 6 AND 8 WK OF AGE, Promoter: NONE USED) | tumour outcome (control, treated, inhibition, significance) (Carcinogen: BENZO[A]PYRENE, 50-32-8, Dose [Inhibitor]: 1500 PPM IN DIET CONTAINING 5% CORN OIL BEGINNING ON DAY OF LAST CARCINOGEN DOSE AND CONTINUING FOR 12 WK (STUDY DURATIO, Route [Inhibitor]: ORAL, Species: MOUSE, Strain/Sex: STRAIN-A/FEMALE, Target Tissue: Type of Lesion: FORESTOMACH: SQUAMOUS CELL PAPILLOMA, Dose [Carcinogen]: 3 MG IN 0.25 ML CORN OIL AT 6 AND 8 WK OF AGE, Promoter: NONE USED) | tumour outcome (control, treated, inhibition, significance) (Carcinogen: BENZO[A]PYRENE, 50-32-8, Dose [Inhibitor]: 1500 PPM IN DIET CONTAINING 5% CORN OIL BEGINNING ON DAY OF LAST CARCINOGEN DOSE AND CONTINUING FOR 12 WK (STUDY DURATIO, Route [Inhibitor]: ORAL, Species: MOUSE, Strain/Sex: STRAIN-A/FEMALE, Target Tissue: Type of Lesion: LUNG: ADENOMA, Dose [Carcinogen]: 3 MG IN 0.25 ML CORN OIL AT 6 AND 8 WK OF AGE, Promoter: NONE USED) | tumour outcome (control, treated, inhibition, significance) (Carcinogen: BENZO[A]PYRENE, 50-32-8, Dose [Inhibitor]: 2000 PPM IN DIET CONTAINING 5% CORN OIL BEGINNING 1 WK PRIOR TO 1ST CARCINOGEN TREATMENT AND CONTINUING FOR 18 WK (STUDY, Route [Inhibitor]: ORAL, Species: MOUSE, Strain/Sex: STRAIN-A/FEMALE, Target Tissue: Type of Lesion: FORESTOMACH: SQUAMOUS CELL PAPILLOMA, Dose [Carcinogen]: 3 MG IN 0.25 ML CORN OIL AT 10 AND 12 WK OF AGE, Promoter: NONE USED) | tumour outcome (control, treated, inhibition, significance) (Carcinogen: BENZO[A]PYRENE, 50-32-8, Dose [Inhibitor]: 2000 PPM IN DIET CONTAINING 5% CORN OIL BEGINNING 1 WK PRIOR TO 1ST CARCINOGEN TREATMENT AND CONTINUING FOR 18 WK (STUDY, Route [Inhibitor]: ORAL, Species: MOUSE, Strain/Sex: STRAIN-A/FEMALE, Target Tissue: Type of Lesion: LUNG: ADENOMA, Dose [Carcinogen]: 3 MG IN 0.25 ML CORN OIL AT 10 AND 12 WK OF AGE, Promoter: NONE USED) | tumour outcome (control, treated, inhibition, significance) (Carcinogen: N-METHYL-N'-NITRO-N-NITROSOGUANIDINE [70-25-7], Dose [Inhibitor]: 0, 25 MG/KG BW 1X/2 D FOR 26 WK BEGINNING 1 WK POST LAST CARCINOGEN DOSE (STUDY DURATION: 52 WK), Route [Inhibitor]: SUBCUTANEOUS, Species: RAT, Strain/Sex: WISTAR/MALE, Target Tissue: Type of Lesion: STOMACH: TUMOR, Dose [Carcinogen]: 25 UG/ML IN DRINKING WATER FOR 25 WK (STUDY DURATION: 52 WK), Promoter: AMMONIUM ACETATE [631-61-8], SODIUM HYPOCLORITE [7681-52-9]) |
| --- | --- | --- | --- | --- | --- | --- | --- | --- | --- | --- | --- | --- | --- |
| CCCN(CCC)c1c([N+](=O)[O-])cc(C(F)(F)F)cc1[N+](=O)[O-] | 100%, 84%, 16%, not significant | 97%, 96%, 1%, not significant | 80%, 32%, 60%, not significant | 100%, 88%, 12%, not significant | 92%, 80%, 13%, not significant | 72%, 40%, 44%, not significant | 100%, 92%, 8%, not significant | 72%, 60%, 17%, not significant | 88%, 100%, -14%, not significant | 76%, 52%, 32%, not significant | 100%, 63%, 37%, not calculated | 97%, 74%, 24%, not calculated |  |
| Nc1c(Br)cc(Br)cc1CNC1CCC(O)CC1 (stereo not drawn) |  |  |  |  |  |  |  |  |  |  |  |  | 17/20 (85%), 6/19 (32%), 62%, p<0.01 |
